{"source": "ChEMBL document CHEMBL1629559", "about": "“Real-time PCR detection of gyrA and parC mutations in Streptococcus pneumoniae” (2008)", "key": {"Streptococcus pneumoniae [1]": {"test_system": "Streptococcus pneumoniae", "assay": "Antibacterial activity against Streptococcus pneumoniae CIP104485 by agar disk diffusion method", "assay_type": "functional, CIP1044"}, "Streptococcus pneumoniae [2]": {"test_system": "Streptococcus pneumoniae", "assay": "Antibacterial activity against Streptococcus pneumoniae R6 by agar disk diffusion method", "assay_type": "functional"}, "Streptococcus pneumoniae [3]": {"test_system": "Streptococcus pneumoniae", "assay": "Antibacterial activity against Streptococcus pneumoniae CP1000 by agar disk diffusion method", "assay_type": "functional"}, "Streptococcus pneumoniae [4]": {"test_system": "Streptococcus pneumoniae", "assay": "Antibacterial activity against Streptococcus pneumoniae R6 Tr6 harboring gyrA Ser81Phe mutant gene by agar disk diffusion method", "assay_type": "functional"}, "Streptococcus pneumoniae [5]": {"test_system": "Streptococcus pneumoniae", "assay": "Antibacterial activity against Streptococcus pneumoniae U2A1686 harboring gyrA Glu85Lys mutant gene by agar disk diffusion method", "assay_type": "functional"}, "Streptococcus pneumoniae [6]": {"test_system": "Streptococcus pneumoniae", "assay": "Antibacterial activity against Streptococcus pneumoniae U2A1050 harboring gyrA Ser81Phe mutant gene by agar disk diffusion method", "assay_type": "functional"}, "Streptococcus pneumoniae [7]": {"test_system": "Streptococcus pneumoniae", "assay": "Antibacterial activity against Streptococcus pneumoniae U2A1051 harboring gyrA Ser81Tyr mutant gene by agar disk diffusion method", "assay_type": "functional"}, "Streptococcus pneumoniae [8]": {"test_system": "Streptococcus pneumoniae", "assay": "Antibacterial activity against Streptococcus pneumoniae U2A1266 harboring gyrA Ser81Cys mutant gene by agar disk diffusion method", "assay_type": "functional"}, "Streptococcus pneumoniae [9]": {"test_system": "Streptococcus pneumoniae", "assay": "Antibacterial activity against Streptococcus pneumoniae H548 clinical isolate harboring gyrA Ser81Phe mutant gene by agar disk diffusion method", "assay_type": "functional"}, "Streptococcus pneumoniae [10]": {"test_system": "Streptococcus pneumoniae", "assay": "Antibacterial activity against Streptococcus pneumoniae R6 Tr1 harboring parC Ser79Tyr mutant gene by agar disk diffusion method", "assay_type": "functional"}, "Streptococcus pneumoniae [11]": {"test_system": "Streptococcus pneumoniae", "assay": "Antibacterial activity against Streptococcus pneumoniae U2A1053 harboring parC Ser79Phe mutant gene by agar disk diffusion method", "assay_type": "functional"}, "Streptococcus pneumoniae [12]": {"test_system": "Streptococcus pneumoniae", "assay": "Antibacterial activity against Streptococcus pneumoniae U2A1413 harboring parC Ser79Tyr mutant gene by agar disk diffusion method", "assay_type": "functional"}, "Streptococcus pneumoniae [13]": {"test_system": "Streptococcus pneumoniae", "assay": "Antibacterial activity against Streptococcus pneumoniae U2A1693 harboring parC Asp83Asn mutant gene by agar disk diffusion method", "assay_type": "functional"}, "Streptococcus pneumoniae [14]": {"test_system": "Streptococcus pneumoniae", "assay": "Antibacterial activity against Streptococcus pneumoniae U2A1411 harboring parC Asp83Gly mutant gene by agar disk diffusion method", "assay_type": "functional"}, "Streptococcus pneumoniae [15]": {"test_system": "Streptococcus pneumoniae", "assay": "Antibacterial activity against Streptococcus pneumoniae U2A1681 harboring parC Ser79Tyr Asp83Ala mutant gene by agar disk diffusion method", "assay_type": "functional"}, "Streptococcus pneumoniae [16]": {"test_system": "Streptococcus pneumoniae", "assay": "Antibacterial activity against Streptococcus pneumoniae R6 Tr10 harboring gyrA Ser81Tyr parC Ser79Tyr mutant gene by agar disk diffusion method", "assay_type": "functional"}, "Streptococcus pneumoniae [17]": {"test_system": "Streptococcus pneumoniae", "assay": "Antibacterial activity against Streptococcus pneumoniae U2A1056 harboring gyrA Ser81Tyr parC Asp83His mutant gene by agar disk diffusion method", "assay_type": "functional"}, "Streptococcus pneumoniae [18]": {"test_system": "Streptococcus pneumoniae", "assay": "Antibacterial activity against Streptococcus pneumoniae U2A1060 harboring gyrA Ser81Phe parC Asp83His mutant gene by agar disk diffusion method", "assay_type": "functional"}, "Streptococcus pneumoniae [19]": {"test_system": "Streptococcus pneumoniae", "assay": "Antibacterial activity against Streptococcus pneumoniae U2A1414 harboring gyrA Glu85Lys parC Ser79Phe mutant gene by agar disk diffusion method", "assay_type": "functional"}, "Streptococcus pneumoniae [20]": {"test_system": "Streptococcus pneumoniae", "assay": "Antibacterial activity against Streptococcus pneumoniae CIP104485 by agar dilution method", "assay_type": "functional", "conditions": "CIP1044"}, "Streptococcus pneumoniae [21]": {"test_system": "Streptococcus pneumoniae", "assay": "Antibacterial activity against Streptococcus pneumoniae R6 by agar dilution method", "assay_type": "functional"}, "Streptococcus pneumoniae [22]": {"test_system": "Streptococcus pneumoniae", "assay": "Antibacterial activity against Streptococcus pneumoniae CP1000 by agar dilution method", "assay_type": "functional"}, "Streptococcus pneumoniae [23]": {"test_system": "Streptococcus pneumoniae", "assay": "Antibacterial activity against Streptococcus pneumoniae R6 Tr6 harboring gyrA Ser81Phe mutant gene by agar dilution method", "assay_type": "functional"}, "Streptococcus pneumoniae [24]": {"test_system": "Streptococcus pneumoniae", "assay": "Antibacterial activity against Streptococcus pneumoniae U2A1686 harboring gyrA Glu85Lys mutant gene by agar dilution method", "assay_type": "functional"}, "Streptococcus pneumoniae [25]": {"test_system": "Streptococcus pneumoniae", "assay": "Antibacterial activity against Streptococcus pneumoniae U2A1050 harboring gyrA Ser81Phe mutant gene by agar dilution method", "assay_type": "functional"}, "Streptococcus pneumoniae [26]": {"test_system": "Streptococcus pneumoniae", "assay": "Antibacterial activity against Streptococcus pneumoniae U2A1051 harboring gyrA Ser81Tyr mutant gene by agar dilution method", "assay_type": "functional"}, "Streptococcus pneumoniae [27]": {"test_system": "Streptococcus pneumoniae", "assay": "Antibacterial activity against Streptococcus pneumoniae U2A1266 harboring gyrA Ser81Cys mutant gene by agar dilution method", "assay_type": "functional"}, "Streptococcus pneumoniae [28]": {"test_system": "Streptococcus pneumoniae", "assay": "Antibacterial activity against Streptococcus pneumoniae H548 clinical isolate harboring gyrA Ser81Phe mutant gene by agar dilution method", "assay_type": "functional"}, "Streptococcus pneumoniae [29]": {"test_system": "Streptococcus pneumoniae", "assay": "Antibacterial activity against Streptococcus pneumoniae R6 Tr1 harboring parC Ser79Tyr mutant gene by agar dilution method", "assay_type": "functional"}, "Streptococcus pneumoniae [30]": {"test_system": "Streptococcus pneumoniae", "assay": "Antibacterial activity against Streptococcus pneumoniae U2A1053 harboring parC Ser79Phe mutant gene by agar dilution method", "assay_type": "functional"}, "Streptococcus pneumoniae [31]": {"test_system": "Streptococcus pneumoniae", "assay": "Antibacterial activity against Streptococcus pneumoniae U2A1413 harboring parC Ser79Tyr mutant gene by agar dilution method", "assay_type": "functional"}, "Streptococcus pneumoniae [32]": {"test_system": "Streptococcus pneumoniae", "assay": "Antibacterial activity against Streptococcus pneumoniae U2A1693 harboring parC Asp83Asn mutant gene by agar dilution method", "assay_type": "functional"}, "Streptococcus pneumoniae [33]": {"test_system": "Streptococcus pneumoniae", "assay": "Antibacterial activity against Streptococcus pneumoniae U2A1411 harboring parC Asp83Gly mutant gene by agar dilution method", "assay_type": "functional"}, "Streptococcus pneumoniae [34]": {"test_system": "Streptococcus pneumoniae", "assay": "Antibacterial activity against Streptococcus pneumoniae U2A1681 harboring parC Ser79Tyr Asp83Ala mutant gene by agar dilution method", "assay_type": "functional"}, "Streptococcus pneumoniae [35]": {"test_system": "Streptococcus pneumoniae", "assay": "Antibacterial activity against Streptococcus pneumoniae R6 Tr10 harboring gyrA Ser81Tyr parC Ser79Tyr mutant gene by agar dilution method", "assay_type": "functional"}, "Streptococcus pneumoniae [36]": {"test_system": "Streptococcus pneumoniae", "assay": "Antibacterial activity against Streptococcus pneumoniae U2A1056 harboring gyrA Ser81Tyr parC Asp83His mutant gene by agar dilution method", "assay_type": "functional"}, "Streptococcus pneumoniae [37]": {"test_system": "Streptococcus pneumoniae", "assay": "Antibacterial activity against Streptococcus pneumoniae U2A1060 harboring gyrA Ser81Phe parC Asp83His mutant gene by agar dilution method", "assay_type": "functional"}, "Streptococcus pneumoniae [38]": {"test_system": "Streptococcus pneumoniae", "assay": "Antibacterial activity against Streptococcus pneumoniae U2A1414 harboring gyrA Glu85Lys parC Ser79Phe mutant gene by agar dilution method", "assay_type": "functional"}}}
{"smiles": "CCn1cc(C(=O)O)c(=O)c2cc(F)c(N3CCNCC3)cc21", "note": "[NORFLOXACIN]", "values": [{"measurement": "diameter of the inhibition zone (DIZ)", "setting": "Streptococcus pneumoniae [1]", "value": 19, "unit": "mm"}, {"measurement": "diameter of the inhibition zone (DIZ)", "setting": "Streptococcus pneumoniae [2]", "value": 19, "unit": "mm"}, {"measurement": "diameter of the inhibition zone (DIZ)", "setting": "Streptococcus pneumoniae [3]", "value": 21, "unit": "mm"}, {"measurement": "diameter of the inhibition zone (DIZ)", "setting": "Streptococcus pneumoniae [4]", "value": 18, "unit": "mm"}, {"measurement": "diameter of the inhibition zone (DIZ)", "setting": "Streptococcus pneumoniae [5]", "value": 22, "unit": "mm"}, {"measurement": "diameter of the inhibition zone (DIZ)", "setting": "Streptococcus pneumoniae [6]", "value": 16, "unit": "mm"}, {"measurement": "diameter of the inhibition zone (DIZ)", "setting": "Streptococcus pneumoniae [7]", "value": 18, "unit": "mm"}, {"measurement": "diameter of the inhibition zone (DIZ)", "setting": "Streptococcus pneumoniae [8]", "value": 13, "unit": "mm"}, {"measurement": "diameter of the inhibition zone (DIZ)", "setting": "Streptococcus pneumoniae [9]", "value": 6, "unit": "mm"}, {"measurement": "diameter of the inhibition zone (DIZ)", "setting": "Streptococcus pneumoniae [10]", "value": 6, "unit": "mm"}, {"measurement": "diameter of the inhibition zone (DIZ)", "setting": "Streptococcus pneumoniae [11]", "value": 6, "unit": "mm"}, {"measurement": "diameter of the inhibition zone (DIZ)", "setting": "Streptococcus pneumoniae [12]", "value": 6, "unit": "mm"}, {"measurement": "diameter of the inhibition zone (DIZ)", "setting": "Streptococcus pneumoniae [13]", "value": 6, "unit": "mm"}, {"measurement": "diameter of the inhibition zone (DIZ)", "setting": "Streptococcus pneumoniae [14]", "value": 6, "unit": "mm"}, {"measurement": "diameter of the inhibition zone (DIZ)", "setting": "Streptococcus pneumoniae [15]", "value": 6, "unit": "mm"}, {"measurement": "diameter of the inhibition zone (DIZ)", "setting": "Streptococcus pneumoniae [16]", "value": 6, "unit": "mm"}, {"measurement": "diameter of the inhibition zone (DIZ)", "setting": "Streptococcus pneumoniae [17]", "value": 6, "unit": "mm"}, {"measurement": "diameter of the inhibition zone (DIZ)", "setting": "Streptococcus pneumoniae [18]", "value": 6, "unit": "mm"}, {"measurement": "diameter of the inhibition zone (DIZ)", "setting": "Streptococcus pneumoniae [19]", "value": 6, "unit": "mm"}, {"measurement": "MIC", "setting": "Streptococcus pneumoniae [20]", "value": 4, "unit": "µg/mL"}, {"measurement": "MIC", "setting": "Streptococcus pneumoniae [21]", "value": 4, "unit": "µg/mL"}, {"measurement": "MIC", "setting": "Streptococcus pneumoniae [22]", "value": 4, "unit": "µg/mL"}, {"measurement": "MIC", "setting": "Streptococcus pneumoniae [23]", "value": 4, "unit": "µg/mL"}, {"measurement": "MIC", "setting": "Streptococcus pneumoniae [24]", "value": 4, "unit": "µg/mL"}, {"measurement": "MIC", "setting": "Streptococcus pneumoniae [25]", "value": 8, "unit": "µg/mL"}, {"measurement": "MIC", "setting": "Streptococcus pneumoniae [26]", "value": 8, "unit": "µg/mL"}, {"measurement": "MIC", "setting": "Streptococcus pneumoniae [27]", "value": 8, "unit": "µg/mL"}, {"measurement": "MIC", "setting": "Streptococcus pneumoniae [28]", "value": 32, "unit": "µg/mL"}, {"measurement": "MIC", "setting": "Streptococcus pneumoniae [29]", "value": 64, "unit": "µg/mL"}, {"measurement": "MIC", "setting": "Streptococcus pneumoniae [30]", "value": 64, "unit": "µg/mL"}, {"measurement": "MIC", "setting": "Streptococcus pneumoniae [31]", "value": 32, "unit": "µg/mL"}, {"measurement": "MIC", "setting": "Streptococcus pneumoniae [32]", "value": 64, "unit": "µg/mL"}, {"measurement": "MIC", "setting": "Streptococcus pneumoniae [33]", "value": 256, "unit": "µg/mL"}, {"measurement": "MIC", "setting": "Streptococcus pneumoniae [34]", "value": 256, "unit": "µg/mL"}, {"measurement": "MIC", "setting": "Streptococcus pneumoniae [35]", "value": 128, "unit": "µg/mL"}, {"measurement": "MIC", "setting": "Streptococcus pneumoniae [36]", "value": 128, "unit": "µg/mL"}, {"measurement": "MIC", "setting": "Streptococcus pneumoniae [37]", "value": 256, "unit": "µg/mL"}, {"measurement": "MIC", "setting": "Streptococcus pneumoniae [38]", "value": 256, "unit": "µg/mL"}]}
